# In US9309196B2, “Indole derivatives and process for their preparation” (Ramot at Tel-Aviv University Ltd., priority 2010, dated 2016):
# Target: T1, monomeric Aβ1-42 (Homo sapiens, UniProt P05067)
# T1 construct: Aβ1-42 (#60-0-80, American Peptide, Sunnyvale, Calif. USA); purchased American Peptide, Sunnyvale, Calif; USA #60-0-80
# Assay: Surface plasmon resonance (SPR) binding of compounds to immobilized Aβ1-42 monomers (Biacore X100)
# Settings: compounds 0.1 nM to 300 nM, 25° C., steady-state analysis, repeated tests
# Experimental: Aβ monomers were covalently coupled to one flow cell of CM7 sensor chips (GE Lifesciences, Uppsala, Sweden) via primary amines using the Amine Coupling Kit (GE Lifesciences, Uppsala, Sweden). As a control, ethanolamine was immobilized on the reference channel. […] One RU represents about 1 pg/mm^2 of the analytes on the surface matrix of the sensor chip.
# Concentrations were tested in duplicate.
# The RUs elicited by the compound injected into the ethanolamine control flow cell was set as reference response and subtracted from the RUs elicited by the same compound injected to the Aβ saturated flow cell. The relationships between each RU obtained at the steady state of binding (plateau of the binding curve) and each concentration of the compound were plotted.
# After the analyte injection was stopped, HBS-EP buffer was flowed over the chip for 180 s to allow the bound analyte to dissociate from the immobilized Aβ and the dissociation curves were obtained.
# The dissociation equilibrium constant KD of the analyte to the immobilized Aβ was determined from the steady-state levels estimating the maximum RU Rmax and calculating the KD as the concentration of the compound that elicited one-half of the Rmax.
# T1 sequence (P05067 672-713 limits assumed): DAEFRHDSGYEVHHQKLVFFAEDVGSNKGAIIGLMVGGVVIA
row,Structure (SMILES),IC50
1,"CC(=O)N[C@@H](/C=C/C(C)(C)C(=O)O)Cc1c[nH]c2ccccc12 [Example 5, (E)-(R)-5-Acetylamino-6-(1H-indol-3-yl)-2,2-dimethyl-hex-3-enoic-acid]",42.1 nM
2,"CC(C)(/C=C/[C@H](N)Cc1c[nH]c2ccccc12)C(N)=O [Example 3, (E)-(R)-5-Amino-6-(1H-indol-3-yl)-2,2-dimethyl-hex-3-enoic acid amide]",0.5 nM
3,"CNC(=O)C(C)(C)/C=C/[C@H](N)Cc1c[nH]c2ccccc12 [Example 4, (E)-(R)-5-Amino-6-(1H-indol-3-yl)-2,2-dimethyl-hex-3-enoic-acid-methylamide]",6.8 nM
